How the values were obtained:
[1] = target: T1, human CGRP receptor (SK-N-MC cells) (Homo sapiens, UniProt O60894+Q16602); assay: Schild analysis of CGRP stimulated cAMP production; assay type: cell-based; conditions: for slope: Schild plot slope
T1 construct: SK-N-MC cells that endogenously express the human CGRP receptor; endogenous in cells; host or cells: SK-N-MC cells

[2] = system: human cerebral vessels (CGRP-induced dilation); assay: Ex Vivo Human Cerebral Artery Assay, reversal of CGRP-induced relaxation; conditions: reversal of 1 nM hCGRP-induced relaxation, vessels pre-contracted with 10 mM KCl
Method in brief: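 Autopsy human cerebral artery rings (4-5 mm) in Krebs buffer, 37 °C, pH 7.4, carbogen; primed with 100 mM KCl, pre-contracted with 10 mM KCl and fully dilated with 1 nM hCGRP. Antagonists added cumulatively in half-log steps; tension recorded as % reversal of CGRP relaxation, EC50 by four-parameter logistic fit per vessel.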

[3] = system: CGRP-induced increase in laser Doppler facial blood flow; assay: Non-terminal laser Doppler facial blood flow model in non-human primate; assay type: in vivo, common marmoset (Callithrix jacchus); conditions: iv, CGRP 10 μg/kg
Source text: Overview. […] Non-human primates (e.g., marmosets) are the only animals known to have human-like CGRP receptor pharmacology conferred by the presence of the specific amino acid residue (Trp74) in their RAMP1 sequence which is responsible for the phenotype of the human receptor (Mallee et al. J Biol Chem 2002 277:14294). […] Peptide and small-molecule CGRP-receptor antagonists were used to validate the non-human primate model.
Animals. Adult male and female common marmosets (Callithrix jacchus) purchased from Harlan and weighing 350-550 g served as subjects. Other mammals endogenously expressing RAMP1 having Trp 74 or transgenic mammals with humanized RAMP1 having Trp 74 can also be employed in A compound described herein.
Anesthesia & Surgical Preparation. Animals are anesthetized by isoflurane inhalation in an induction chamber (4-5% rapid induction, maintained with 1-2.5%; Solomon et al., 1999). Anesthesia is maintained by delivering a constant supply of air:oxygen (50:50) and isoflurane via face mask, or by intubation and ventilation (with blood gas monitoring). Body temperature is maintained at 38±0.5° C. by placement on an automated temperature controlled surface with rectal probe. A small area of fur (approx. 1.5 cm square) is removed from one or both sides of the face by application of a depilatory cream and/or shaving. Surgical areas are clipped and prepared with betadine. An i.v. line is placed in any accessible vein for the administration of test compounds and CGRP-receptor agonist and, if needed, withdrawal of blood samples (max 2.5 ml, 10%) for blood gas monitoring and content analysis. A solution of 5% dextrose is administered i.v. in order to maintain blood sugar levels. Anesthesia depth is monitored by measuring blood pressure and heart rate using a non-invasive arm cuff method and a pulse oximeter, respectively. Guanethidine 5-10 mg/kg i.v., supplemented with 5 mg/kg i.v. as needed, may be given to stabilize the peak flux in facial blood flow seen with repeated stimulation-induced changes in blood flow (Escott et al., 1999; incorporated by reference herein). Microvascular blood flow is monitored by attaching a self adhesive laser Doppler flow probe to the facial skin.
Compound Administration Test compounds may be administered i.v. (0.01-5 ml/kg), i.m. (0.01-0.5 ml/kg), s.c. (0.01-5 ml/kg) or p.o. (0.1-10 ml/kg) (Diehl et al., 2001; incorporated by reference herein). CGRP-receptor agonists may be delivered i.v. (0.01-5 ml/kg), i.d. (10-100 μl/site) or s.c. (10-100 μl/site).

T1 sequence (Q16602 23-461): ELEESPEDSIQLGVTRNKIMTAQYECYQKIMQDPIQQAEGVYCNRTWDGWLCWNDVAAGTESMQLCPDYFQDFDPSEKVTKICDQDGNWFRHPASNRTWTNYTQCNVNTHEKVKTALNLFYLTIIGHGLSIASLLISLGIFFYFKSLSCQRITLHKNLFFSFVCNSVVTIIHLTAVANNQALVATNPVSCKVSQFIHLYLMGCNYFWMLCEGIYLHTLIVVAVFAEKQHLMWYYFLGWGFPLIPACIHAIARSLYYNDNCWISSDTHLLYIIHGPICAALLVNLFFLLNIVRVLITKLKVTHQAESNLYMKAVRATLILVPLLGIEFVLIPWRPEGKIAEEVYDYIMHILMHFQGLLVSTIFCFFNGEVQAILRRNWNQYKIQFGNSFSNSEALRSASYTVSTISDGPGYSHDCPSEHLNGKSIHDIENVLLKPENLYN
T1 sequence (O60894 27-148): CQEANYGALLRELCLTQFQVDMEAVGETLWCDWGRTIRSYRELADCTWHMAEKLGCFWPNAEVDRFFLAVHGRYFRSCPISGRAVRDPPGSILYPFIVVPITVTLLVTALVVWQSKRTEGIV

What does the source list for `Cc1cc(CC(NC(=O)N2CCC(N3Cc4ccccc4NC3=O)CC2)C(=O)N2CCC(N3CCCCC3)CC2)cc2cn[nH]c12` (racemic) [Example 16, (±)-4-(2-Oxo-1,4-dihydro-2H-quinazolin-3-yl)-piperidine-1-carboxylic acid[2-[1,4′]bipiperidinyl-1′-yl-1-(7-methyl-1H-indazol-5-ylmethyl)-2-oxo-ethyl]-amide]?
slope [1]: 1.3; EC50 [2]: < 10 nM; % Inhibition of CGRP-induced increase in laser Doppler facial blood flow ([3]; 0.03 mg/kg): Y (50%<Y≦75%)

For `Cc1cc(CC(CC(=O)N2CCC(N3Cc4ccccc4NC3=O)CC2)C(=O)N2CCC(N3CCCCC3)CC2)cc2cn[nH]c12` (racemic) [Example 69, (±)-1-[1,4′]Bipiperidinyl-1′-yl-2-(7-methyl-1H-indazol-5-ylmethyl)-4-[4-(2-oxo-1,4-dihydro-2H-quinazolin-3-yl)-piperidin-1-yl]-butane-1,4-dione], which Kb ([1]; Schild analysis, dissociation constant of the antagonist, read-out: Kb) is on record?
Its Kb is 0.016 nM.

And the slope [1]?
The slope was 1.

What about the EC50 [2] of the same molecule?
Its EC50 is under 10 nM.

What about the “% Inhibition of CGRP-induced increase in laser Doppler facial blood flow” value ([3]; 0.03 mg/kg) of the same molecule?
Its value is “Y (50%<Y≦75%)”.

And the “% Inhibition of CGRP-induced increase in laser Doppler facial blood flow” value ([3]; 0.1 mg/kg)?
Its value is “Z (Z>75%)”.
